Laboratory results published in patent US8304448B2, “Method for the treatment of metabolic disorder containing benzazole derivatives as an active ingredient” (Korea Research Institute of Bioscience and Biotechnology, priority 2006, dated 2012).

Legend:
[1] = system: DGAT; test: Assay for inhibitory activity against DGAT ([14C]triacylglycerol formation, rat microsomal protein); assay type: biochemical; details: rat microsomal protein as enzyme source
Description: The derivatives of Chemical Formula 1 in accordance with the present invention are found to inhibit the enzymatic activity of DGAT at a dose-dependent manner (refer to Table 2 and FIG. 1) as measured in a test in which [^14C]triacylglycerol was quantitatively analyzed after enzymatic reaction between 1,2-diacylglycerol and [^14C]palmitoyl-CoA, with microsomal proteins from rats serving as an enzyme source (refer to Example 1).
After enzymatic reaction between two substrates 1,2-diacylglycerol (Sigma, D0138) and [^14C]palmitoyl-CoA (Amersham, CFA583) with the microsomal protein of rat serving as an enzyme source in accordance with Coleman et al, Methods Enzymol., 98-103, 1992, the resulting product [^14C] triacylglycerol was measured for radioactivity. In detail, to a reaction buffer (175 mM Tris-HCl, pH 8.0, 20 μl bovine serum albumin (10 mg/ml), 100 mM MgCl2, 30 μM [^14C] palmitoyl-CoA (0.02 μCi, Amersham) and 200 μM 1,2-dioleoyl glycerol) was added 10 μl of a solution of the samples in dimethylsulfoxide (DMSO) and then 100˜200 μl of an isolated microsomal protein, followed by reaction at 25° C. for 10 min. The reaction was terminated with 1.5 ml of a mixture of 80:20:2 2-propanol:heptane:water (v:v:v). Thereafter, the [^14C] triacylglycerol thus formed was separated. In this regard, 1 ml of heptane and 0.5 ml of distilled water were added to the reaction mixture, which was then shaken. 1 ml of the supernatant thus formed was mixed with 2 ml of an alkaline ethanol solution (ethanol:0.5 N sodium hydroxide:water=50:10:40, v:v:v), followed by shaking. After being taken, 0.65 ml of the supernatant thus formed was measured for radioactivity using an LSC (liquid scintillation counter). The inhibitory activity against DGAT was calculated according to the following Mathematical Formula 1. The inhibitory effects of the benzazole derivatives on DGAT are summarized in Table 2, below while % DGAT inhibition is plotted against doses of compound 22 and 31 in FIG. 1.
T: Cpm of a test group in which a sample was added to an enzymatic buffer,
C: Cpm of a control in which no samples were added to an enzymatic buffer,
B: Cpm of a control in which a sample was added in the absence of any enzyme source.

[2] = system: DGAT; test: Assay for inhibitory effect on DGAT in cell (intracellular triglyceride production from [14C]acetate in HepG2 cells); assay type: cell-based, human; details: for Production Yield of Triglyceride (%): final level 10 μM, DMSO control given as 100
Method: The effect of the benzazole derivatives of Chemical Formula 1 in accordance with the present invention on DGAT was examined with HepG2 cells, hepatic cells derived from the human liver, as follows.
HepG2 cells, purchased from ATCC, were cultured in Eagle's minimum essential medium (MEM), 2 mM L-glutamine, with Earle's balanced salt solution (BSS) adjusted to contain, 1.5 g/L sodium bicarbonate, 0.1 mM non-essential amino acids and 1 mM sodium pyruvate, supplemented with 10% fetal bovine serum (FBS) and 1% antibiotics (100 U/ml penicillin and 100 µg/ml streptomycin) at 37° C. in a 5% CO2 incubator.
Intracellular DGAT activity was represented by the amount of triglycerides produced in the cultured HepG2 cells while the compounds (4, 8, 10, 22, 24, 25, 26, 39 and 31) of Chemical Formula 1 were assayed for inhibitory activity against DGAT by measuring the change in intracellular triglyceride production after the addition thereof.
Cells were plated at a density of 1×10^6 cell/ml per well into 24-well plates and incubated for 24 hours. Then, the medium was exchanged with FBS-free MEM and pre-treated with samples for 1 hour. Thereafter, 0.2 mCi of [^14C]acetate (Amersham) was added as a substrate to the cells, followed by incubation for 1 hour. The production of triglyceride was catalyzed by DGAT so that DGAT activity was determined by the amount of the triglyceride product, which could be measured by radioactivity. For use, the samples were dissolved in dimethyl sulfoxide (DMSO). In a control, triglycerides were synthesized using DMSO without any sample, with the production yield thereof given as 100.
The amount of the glyceride products synthesized was determined as follows. After completion of synthesis, the cells were suspended in PBS (phosphate-buffer-saline) to remove the substrate [^14C]acetate, whether unabsorbed into the cells or remaining unreacted, and total lipids, including triglycerides, were extracted twice for 30 min with 0.5 ml of an extraction solvent mixture (hexane:isopropanol=3:2, v:v). 1 ml of the extract was concentrated with nitrogen gas.
The total lipid residue thus formed was dissolved in an organic solvent mixture (chloroform:methanol=2:1) and loaded dropwise onto a thin layer chromatography plate (TLC; silica gel 60F254, 0.5 mm, Merck) using a mixture of 80:20:1 hexane:diethylether:acetic acid (v:v:v) as a developing solvent. After the separation of triglycerides (Rf value: 0.4) on TLC, the plate was brought into contact with an autoradiographic film for three hours, followed by image analysis (BAS-1500, Fuji Photo Film Co. Ltd.) to determine the [^14C] radioactivity of the triglycerides. The cells left after the extraction were suspended in 0.3 ml of a 0.1 N sodium hydroxide solution to measure the cellular protein concentration thereof.
The empirical values were obtained by dividing triglyceride radioactivity by protein level, with correction for experimental errors between test groups.

[3] = system: ICR mice fed a high-fat diet; test: In vivo assay for anti-obesity activity in mice fed a high-fat diet; parameters: species or system mouse; details: high-fat diet
Method: Also, the derivatives of Chemical Formula 1 were tested for resistance to obesity by iterative oral administration at a dose of 10 mg/kg into ICR male mice (refer to Example 3). […] When they were administered, the levels of total triglycerides, total cholesterols, and low density lipoprotein (LDL)-cholesterol in the blood recovered to almost normal levels, with a significant increase observed in the level of high density lipoprotein (HDL)-cholesterol in the blood (refer to Tables 6 and 7 and FIGS. 3 and 4).
In order to verify the anti-obesity activity of the benzaldehyde derivatives of Chemical Formula 1 in accordance with the present invention, Compounds 22 and 31 were administered repetitively into rodents as follows.
The experimental animals were 6 week old ICR mice which were purchased from Japan SLC, Inc. via Central Lab. Animal Inc. Korea. They were acclimated to a new environment for one week before use, and fed with a foodstuff commercially available from Deyts, U.S.A. They were bred in an animal lab set at a temperature of 23±3° C. and RH 50±10% under light of 150˜300 Lux for a period of 12 hours (6 a.m.˜6 p.m.) with ventilation 10-20 times/hour. All of the 12 mice used were male, and were organized into two groups of 6. The test group was orally administered once a day at 4 p.m. with 10 mg/kg of the compound (Chemical Formula 1) in the form of a solution in biological saline for 35 days while the control was administered with biological saline only. Xenical, a commercially available lipase inhibitor, was administered orally at a dose of 10 mg/kg once a day as a positive control drug.
The animals were measured for body weight every week and sacrificed on Day 35, after which blood from the heart was sampled. Abdominal fat, epididymal fat, retroperitoneal fat and the liver were excised and weighed. Blood samples were assayed for total triglyceride, total cholesterol, HDL-cholesterol and LDL-cholesterol using respective test kits, all commercially available from Asan Pharmaceutical Co. Ltd., Korea.
For evidence of anti-obesity activity, compounds 22 and 31 were orally administered at regular intervals at a dose of 10 mg/kg into ICR male mice for a predetermined period of time with the concurrent provision of conditional diets thereto. Anatomized abdomens of the animals are given in the photographs of FIG. 2.

[4] = Day 35, 10 mg/kg oral, Mean ± SD
[5] = blood, Day 35, 10 mg/kg oral, Mean ± SD

CN(C)C(=O)c1ccc2nc(COc3ccc(C45CC6CC(CC(C6)C4)C5)cc3)[nH]c2c1 [Cpd. 30, 2-(4-adamantan-1-yl-phenoxymethyl)-3H-benzoimidazole-5-carboxylic acid dimethylamide]
DGAT (% inhibition in 5 μM) [1]: 8.0% | DGAT (% inhibition in 25 μM) [1]: 41.8% | Production Yield of Triglyceride (%) [2]: 87.2 ± 7.4%

O=C(NCCCN1CCOCC1)c1ccc2oc(COc3ccc(C45CC6CC(CC(C6)C4)C5)cc3)nc2c1 [Cpd. 25, 2-(4-adamantan-1-yl-phenoxymethyl)-benzoxazole-5-carboxylic acid (3-morpholin-4-yl-propyl)-amide]
DGAT (% inhibition in 25 μM) [1]: 54.08% | Production Yield of Triglyceride (%) [2]: 80.2 ± 7.8%

COC(=O)c1ccc2[nH]c(COc3ccc(C(C)(C)C)cc3C(C)(C)C)nc2c1 [Cpd. 8, 2-(2,4-tert-butyl-phenoxymethyl)-1H-benzoimidazole-5-carboxylic acid methyl ester]
DGAT (% inhibition in 25 μM) [1]: 37.36% | Production Yield of Triglyceride (%) [2]: 88.5 ± 5.8%

COC(=O)c1ccc2[nH]c(COc3ccc(C45CC6CC(CC(C6)C4)C5)cc3)nc2c1 [Cpd. 4, 2-(4-adamantan-1-yl-phenoxymethyl)-1H-benzoimidazole-5-carboxylic acid methyl ester]
DGAT (% inhibition in 25 μM) [1]: 60.43% | Production Yield of Triglyceride (%) [2]: 72.2 ± 7.5%

O=C(NCc1ccco1)c1ccc2oc(COc3ccc(Cl)cc3Cl)nc2c1 [Cpd. 26, 2-(2,4-dichloro-phenoxymethyl)-benzoxazole-5-carboxylic acid (furan-2-ylmethyl)-amide]
DGAT (% inhibition in 25 μM) [1]: 19.75% | Production Yield of Triglyceride (%) [2]: 91.5 ± 5.2%

O=C(NCCN1CCCCC1)c1ccc2oc(COc3ccc(C45CC6CC(CC(C6)C4)C5)cc3)nc2c1 [Cpd. 24, 2-(4-adamantan-1-yl-phenoxymethyl)-benzoxazole-5-carboxylic acid (2-piperidin-1-yl-ethyl)-amide]
DGAT (% inhibition in 25 μM) [1]: 52.84% | Production Yield of Triglyceride (%) [2]: 78.5 ± 6.2%

O=C(NCc1ccco1)c1ccc2[nH]c(COc3ccc(C45CC6CC(CC(C6)C4)C5)cc3)nc2c1 [Cpd. 31, 2-(4-adamantan-1-yl-phenoxymethyl)-1H-benzoimidazole-5-carboxylic acid (furan-2-ylmethyl)-amide]
(Tissue Weight/Body Weight) × 100 Abdominal Fat + Epididymal Fat [3, 4]: 3.16 ± 0.84 | (Tissue Weight/Body Weight) × 100 Liver [3, 4]: 4.48 ± 0.33 | (Tissue Weight/Body Weight) × 100 Retroperitoneal Fat [3, 4]: 0.94 ± 0.24 | (Tissue Weight/Body Weight) × 100 Total Fat [3, 4]: 4.1 ± 1.03 | HDL-Cholesterol [3, 5]: 21.22 ± 2.19 mg/dL | LDL-Cholesterol [3, 5]: 43.62 ± 10.06 mg/dL | Total Cholesterol [3, 5]: 73.19 ± 10.97 mg/dL | Total Triglyceride [3, 5]: 41.79 ± 9.26 mg/dL | inhibition of body weight gain ([3]; 10 mg/kg oral once a day for 35 days): 73% | Body Weight (g) (Mean ± SD) Week 0 ([3]; 10 mg/kg oral once a day, Week 0): 25.08 ± 0.99 g | Body Weight (g) (Mean ± SD) Week 1 ([3]; 10 mg/kg oral once a day, Week 1): 35.1 ± 1.99 g | Body Weight (g) (Mean ± SD) Week 2 ([3]; 10 mg/kg oral once a day, Week 2): 38.93 ± 2.33 g | Body Weight (g) (Mean ± SD) Week 3 ([3]; 10 mg/kg oral once a day, Week 3): 40.75 ± 1.75 g | Body Weight (g) (Mean ± SD) Week 4 ([3]; 10 mg/kg oral once a day, Week 4): 42.31 ± 1.57 g | Body Weight (g) (Mean ± SD) Week 5 ([3]; 10 mg/kg oral once a day, Week 5): 43.22 ± 1.41 g | DGAT (% inhibition in 5 μM) [1]: 62.5% | DGAT (% inhibition in 25 μM) [1]: 85.4% | inhibition of the biosynthesis of triglycerides ([2]; 10 μM): 42.2% | Production Yield of Triglyceride (%) [2]: 57.8 ± 5.3%
